Test results as given in patent publication US9403866B2, “Compositions and methods for increasing telomerase activity” (Telomerase Activation Sciences, Inc., priority 2009, dated 2016).
pEC50: −log10 of the molar value. Where two headings read alike, the source gives them in different places.

Columns and labels:
[1] = Plasma levels and bioavailability in mice; format: in vivo, male C57BL/6 mice; conditions: male, C57BL/6, mouse, 10 mg/kg, 2% EtOH/98% water, read-out: Bioavailability % F
Description: The plasma levels of a compound following a single intravenous, oral, intra-peritoneal, or sub-cutaneous administration in male C57BL/6 mice was determined. Plasma samples were collected and used to determine the plasma concentration of the compound and metabolites. In addition tissue samples, including whisker samples, and peripheral blood mononuclear cells (PBMC) cells were collected for telomerase activity analysis.
[…] mice were divided into treatment groups. The mice were provided ad libitum SLAC-MO1 #W080208 (Shanghai Laboratories Animal Center, Shanghai, China) throughout the in-life portion of the study with the exception of the overnight fasting period prior to oral dosing. Water was available ad libitum.
Body weights were taken on the day of dose administration. Dose volume was determined based on individual body weight taken on day of dosing.
Blood samples (approximately 300 μL) were collected via cardiac puncture or via retro-orbital puncture after anesthesia into tubes containing K2-EDTA anticoagulant and 1 mg/ml NaF at the various time points after dosing. Blood was stored on ice and then plasma separated via centrifugation (8000 rpm×6 minutes). The plasma was stored at […] until LC-MS/MS analysis.

[2] = parameters: species or system male Beagle dogs; conditions: male, Beagle, dog, in vivo, po, 10 mg/kg
Description: The plasma level of a compound following a single intravenous and oral administration in male Beagle dogs was determined. Plasma samples were collected and used to determine the plasma concentration of the compound and metabolites. In addition tissue samples, including whisker samples and PBMC cells were collected for telomerase activity analysis.
Male Beagle dogs were divided into treatment groups according to Table 5. The dogs were provided ad libitum SLAC-MO1 #W080701 (Shanghai Laboratories Animal Center, Shanghai, China) throughout the in-life portion of the study with the exception of the overnight fasting period prior to oral dosing. Water was available ad libitum.
The compounds were dissolved in 2% EtOH/98% water […] to yield a final concentration of 2.5 mg/ml and 1 mg/ml for both intravenous and oral administration, respectively. The concentration of each compound was confirmed by HPLC analysis.
Doses were administered intravenously via the left femoral vein and then by oral dosing one week later. Body weights were taken on the day of dose administration. Dose volume was determined based on individual body weight taken on day of dosing.
Blood samples (approximately 250 μL) were collected via right femoral vein into tubes containing K2-EDTA anticoagulant and 1 mg/ml NaF at appropriate time points. Blood was stored on ice and then plasma separated via centrifugation (8000 rpm×6 minutes). The plasma was stored at […] until LC-MS/MS analysis.

telomerase [3] = target: T1, telomerase (Homo sapiens, UniProt O14746); assay: Telomerase activation in short-term liquid culture of human bone marrow-derived CD34+ hematopoietic progenitor cells (gel-TRAP); format: cell-based; conditions: huCD34+ cells, 100 nM, 3 days
Description: Human bone marrow-derived CD34+ hematopoietic progenitor cells were obtained from a healthy donor.
Human bone marrow-derived CD34+ hematopoietic progenitor cells were grown in Iscove's Modified Dulbecco's Medium (IMDM) (Invitrogen, CA)+10% fetal bovine serum (FBS) for 3 days in the presence of compound 4 (1 uM, 100 nM, 10 nM), vehicle (1% DMSO), or nothing. Telomerase activity increased by ˜60-70% in the 100 nM compound 4 sample relative to the vehicle control (as assessed by traditional gel-TRAP assay).

[4] = system: wild-type mouse lineage-depleted bone marrow cells; assay: Colony formation assay of wild-type mouse lineage-depleted bone marrow cells; format: cell-based; conditions: 12 days
Description: Mouse bone marrow-derived lineage-depleted cells (enriched for hematopoietic stem and progenitor cells but not a pure population) were obtained. Wild-type mouse lineage-depleted bone marrow cells from two separate mice were plated into a standard colony formation assay in the presence of compound 4 (100 nM and 500 nM), vehicle (0.1% DMSO), or nothing. After 12 days, hematopoietic colonies were enumerated (BFU-E, CFU-GM, and CFU-GEMM).

[5] = system: mTERT heterozygous mouse lineage-depleted bone marrow cells; assay: Colony formation assay of mTERT heterozygous mouse lineage-depleted bone marrow cells; format: cell-based; conditions: 12 days
Description: mTERT heterozygous mouse lineage-depleted bone marrow cells were plated into a standard colony formation assay in the presence of compound 4 (100 nm and 500 nM), vehicle (0.1% DMSO), or nothing. After 12 days, hematopoietic colonies were enumerated (BFU-E, CFU-GM, and CFU-GEMM). Total colony counts were: untreated, 67; vehicle-treated, 64; 100 nM compound 4, 68; and 500 nM compound 4, 77.

SAECs [6] = assay: Long-term replicative capacity of SAECs in continuous culture; format: cell-based, human; conditions: 0.1 μM, 60 days continuous culture
Description: SAECs were treated continuously with 0.1 μM of compound 4 in a final concentration of 0.004% ethanol for 60 days in continuous culture. Compound 4 increased the long-term replicative capacity of SAECs by about 2 population doublings (4× increase in calculated cell number).

SAECs [7] = assay: Alamar Blue Proliferation Assay in SAECs; format: cell-based, human; conditions: 3 days, 1% DMSO, different concentrations
Description: (§1) Human SAECs or human fibroblasts were grown in the presence of different concentrations of compound 4 in a final concentration of 1% DMSO in the medium. After 3 days the cells were harvested and proliferation was measured using the Alamar Blue Proliferation Assay.

lung fibroblasts = assay: Alamar Blue Proliferation Assay in lung fibroblasts; format: cell-based, human; conditions: 3 days
Description: as §1

telomerase [8] = target: T1, telomerase; assay: Keratinocyte cell/TRAP assay (HEKneo-P cells); format: cell-based; parameters: host or cells: HEKneo-P (pooled neonatal human epidermal keratinocytes); conditions: telomerase activation
From the text: Harley et al., U.S. Pat. […] Harley et al., U.S. Pat. […] Non-treatment control (NT) was also included. […]

T1 sequence (O14746 whole entry): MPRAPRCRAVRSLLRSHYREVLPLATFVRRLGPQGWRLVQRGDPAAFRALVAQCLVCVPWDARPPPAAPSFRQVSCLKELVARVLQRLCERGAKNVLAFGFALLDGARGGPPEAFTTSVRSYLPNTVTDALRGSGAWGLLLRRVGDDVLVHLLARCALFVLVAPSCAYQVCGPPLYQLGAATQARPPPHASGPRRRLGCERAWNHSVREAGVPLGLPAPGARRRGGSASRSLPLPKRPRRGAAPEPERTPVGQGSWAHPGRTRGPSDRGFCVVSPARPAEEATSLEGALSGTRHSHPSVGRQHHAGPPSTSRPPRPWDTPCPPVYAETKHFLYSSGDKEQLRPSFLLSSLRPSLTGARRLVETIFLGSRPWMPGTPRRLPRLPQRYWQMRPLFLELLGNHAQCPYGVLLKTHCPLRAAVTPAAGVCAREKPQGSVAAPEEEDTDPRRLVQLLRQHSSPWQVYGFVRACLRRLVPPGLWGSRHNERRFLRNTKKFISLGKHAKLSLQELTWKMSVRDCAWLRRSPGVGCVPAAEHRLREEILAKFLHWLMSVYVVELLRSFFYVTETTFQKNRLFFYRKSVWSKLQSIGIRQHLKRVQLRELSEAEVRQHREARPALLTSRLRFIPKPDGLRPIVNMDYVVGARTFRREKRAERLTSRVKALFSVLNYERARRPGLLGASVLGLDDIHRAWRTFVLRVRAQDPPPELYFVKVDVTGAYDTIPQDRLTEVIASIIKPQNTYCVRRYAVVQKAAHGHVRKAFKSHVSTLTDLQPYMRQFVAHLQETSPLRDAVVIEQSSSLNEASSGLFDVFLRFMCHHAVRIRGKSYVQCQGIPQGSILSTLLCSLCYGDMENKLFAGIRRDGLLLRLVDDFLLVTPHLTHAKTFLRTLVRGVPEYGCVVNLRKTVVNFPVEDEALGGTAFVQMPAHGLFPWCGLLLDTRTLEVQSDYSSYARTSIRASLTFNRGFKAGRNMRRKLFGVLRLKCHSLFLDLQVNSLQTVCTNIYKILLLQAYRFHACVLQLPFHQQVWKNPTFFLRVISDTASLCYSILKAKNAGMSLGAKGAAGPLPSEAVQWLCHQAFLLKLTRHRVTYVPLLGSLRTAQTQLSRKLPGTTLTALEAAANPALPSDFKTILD

With `CC(C)C(N)C(=O)OC1CCC23CC24CCC2(C)C(C5(C)CCC(C(C)(C)O)O5)C(O)CC2(C)C4CC(O)C3C1(C)C` (stereo not drawn) [Compound 4, 2-(L)-Amino-3-methyl-butyric acid 6α,16β-dihydroxy-17-[5-(1-hydroxy-1-methyl-ethyl)-2-methyl-tetrahydro-furan-2-yl]-4,4,13,14-tetramethyl-tetradecahydro-cyclopropa[9,10]cyclopenta[a]phenanthren-3β-yl ester] the bioavailability ([1]; PO) was 48%, the bioavailability ([1]; SC) was 66% and the “Bioavailability % F” value [2] was 47%. For the same compound, the “Telomerase activity increase relative to the vehicle control” value (telomerase [3]) was 60-70%, the BFU-E colonies ([4]; Mouse 1, 100 nM) was 50 and the CFU-GEMM colonies ([4]; Mouse 1, 100 nM) was 0. The CFU-GM colonies ([4]; Mouse 1, 100 nM) was 111, the Total colony counts ([4]; Mouse 1, 100 nM) was 161 and the BFU-E colonies ([4]; Mouse 1, 500 nM) was 38. For the same compound, the CFU-GEMM colonies ([4]; Mouse 1, 500 nM) was 1, the CFU-GM colonies ([4]; Mouse 1, 500 nM) was 124 and the Total colony counts ([4]; Mouse 1, 500 nM) was 162. For the same compound, the BFU-E colonies ([4]; Mouse 2, 100 nM) was 31, the CFU-GEMM colonies ([4]; Mouse 2, 100 nM) was 1 and the CFU-GM colonies ([4]; Mouse 2, 100 nM) was 90. The Total colony counts ([4]; Mouse 2, 100 nM) was 121, the BFU-E colonies ([4]; Mouse 2, 500 nM) was 29 and the CFU-GEMM colonies ([4]; Mouse 2, 500 nM) was 2. The CFU-GM colonies ([4]; Mouse 2, 500 nM) was 98, the Total colony counts ([4]; Mouse 2, 500 nM) was 129 and the BFU-E colonies ([5]; 100 nM) was 22. For the same compound, the CFU-E colonies ([5]; 100 nM) was 43, the CFU-GEMM colonies ([5]; 100 nM) was 3 and the Total colony counts ([5]; 100 nM) was 68. For the same compound, the BFU-E colonies ([5]; 500 nM) was 27, the CFU-E colonies ([5]; 500 nM) was 48 and the CFU-GEMM colonies ([5]; 500 nM) was 1. The Total colony counts ([5]; 500 nM) was 77, the “increase in calculated cell number” value (SAECs [6]) was 4 × and the “increase of long-term replicative capacity” value (SAECs [6]; 0.004% ethanol) was “about 2 population doublings”. The increased proliferation (SAECs [7]) was “about 50%”, the “effect on short-term proliferation” value (lung fibroblasts) was “No effect” and the pEC50 (telomerase [8]) was 7.66 to 8.22.
